Experiments:
Type in all cases: in vivo
corn (Zea mays) = test: Test B pre-/postemergence plant response
Summary of the method: (§1)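 Visual ratings on a 0–100 scale (100 = complete control) were made versus untreated controls 13–15 days after treatment in a greenhouse. Compounds in surfactant-containing non-phytotoxic solvent were applied preemergence to seeds in loam–sand blend or postemergence to 1- to 4-leaf plants (2–18 cm).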

[1] = test system: giant foxtail (Setaria faberii); test: Test B pre-/postemergence plant response
Summary of the method: as §1

[2] = test system: goosegrass (Eleusine indica); test: Test B pre-/postemergence plant response
Summary of the method: as §1

[3] = test system: green foxtail (Setaria viridis); test: Test B pre-/postemergence plant response
Summary of the method: as §1

[4] = test system: johnsongrass (Sorghum halepense); test: Test B pre-/postemergence plant response
Summary of the method: as §1

[5] = test system: lambsquarters (Chenopodium album); test: Test B pre-/postemergence plant response
Summary of the method: as §1

[6] = test system: pigweed (Amaranthus retroflexus); test: Test B pre-/postemergence plant response
Summary of the method: as §1

soybean (Glycine max) = test: Test B pre-/postemergence plant response
Summary of the method: as §1

[7] = test system: velvetleaf (Abutilon theophrasti); test: Test B pre-/postemergence plant response
Summary of the method: as §1

[8] = test system: yellow nutsedge (Cyperus esculentus); test: Test B pre-/postemergence plant response
Summary of the method: as §1

[9] = test system: canarygrass (Phalaris minor); test: Test B postemergence plant response
Summary of the method: (§2)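 Visual ratings from 0 (no effect) to 100 (complete control), made against controls 13–15 days after treatment, kept in a greenhouse. Compounds were applied postemergence to potted plants at the 1- to 4-leaf stage (2–18 cm).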

[10] = test system: chickweed (Stellaria media); test: Test B postemergence plant response
Summary of the method: as §2

[11] = test system: windgrass (Apera spica-venti); test: Test B postemergence plant response
Summary of the method: as §2

[12] = test system: winter barley (Hordeum vulgare); test: Test B postemergence plant response
Summary of the method: as §2

[13] = Postemergence, 31 g ai/ha, 0 to 100 scale (0 no effect, 100 complete control)
[14] = Postemergence, 62 g ai/ha, scale 0 to 100 (0 no effect, 100 complete control)
[15] = Postemergence, 125 g ai/ha, scale 0 (no effect) to 100 (complete control), 13 to 15 days
[16] = Postemergence, 250 g ai/ha, scale 0 to 100 (0 no effect, 100 complete control), 13 to 15 days
[17] = Preemergence, 31 g ai/ha, scale 0 to 100 (0 no effect, 100 complete control)
[18] = Preemergence, 62 g ai/ha, scale 0 to 100 (0 no effect, 100 complete control)
[19] = Preemergence, 125 g ai/ha, scale 0 to 100, 0 no effect, 100 complete control
[20] = Preemergence, 250 g ai/ha, 0 to 100 scale
[21] = 31 g ai/ha, postemergence, scale 0 to 100, 0 is no effect, 100 is complete control
[22] = 62 g ai/ha, postemergence, 0 is no effect, 100 is complete control, 13 to 15 days
[23] = Postemergence, 125 g ai/ha, visual rating after 13 to 15 days, scale 0 (no effect) to 100 (complete control)
[24] = Postemergence, 250 g ai/ha, scale 0 to 100 (0 no effect, 100 complete control)

CCc1ccccc1-n1c(-c2ccccc2)ncc(C(=O)C2=C(O)CCCC2=O)c1=O [Compound 255]
Plant response rating, Corn (corn (Zea mays); [13]): 60
Plant response rating, Corn (corn (Zea mays); [14]): 75
Plant response rating, Corn (corn (Zea mays); [15]): 85
Plant response rating, Corn (corn (Zea mays); [16]): 85
Plant response rating, Corn (corn (Zea mays); [17]): 0
Plant response rating, Corn (corn (Zea mays); [18]): 0
Plant response rating, Corn (corn (Zea mays); [19]): 0
Corn plant response rating (corn (Zea mays); [20]): 0
Plant response rating, Foxtail, Giant [1, 13]: 95
Plant response rating, Foxtail, Giant [1, 14]: 98
Plant response rating, Foxtail, Giant [1, 15]: 98
Plant response rating, Foxtail, Giant [1, 16]: 100
Plant response rating, Foxtail, Giant [1, 17]: 15
Plant response rating, Foxtail, Giant [1, 18]: 45
Plant response rating, Foxtail, Giant [1, 19]: 55
Foxtail, Giant plant response rating [1, 20]: 98
Plant response rating, Goosegrass [2, 13]: 90
Plant response rating, Goosegrass [2, 14]: 90
Plant response rating, Goosegrass [2, 15]: 95
Plant response rating, Goosegrass [2, 16]: 98
Plant response rating, Goosegrass [2, 17]: 80
Plant response rating, Goosegrass [2, 18]: 98
Plant response rating, Goosegrass [2, 19]: 100
Goosegrass plant response rating [2, 20]: 100
Plant response rating, Foxtail, Green [3, 13]: 85
Plant response rating, Foxtail, Green [3, 14]: 90
Plant response rating, Foxtail, Green [3, 15]: 90
Plant response rating, Foxtail, Green [3, 16]: 90
Plant response rating, Foxtail, Green [3, 17]: 0
Plant response rating, Foxtail, Green [3, 18]: 80
Plant response rating, Foxtail, Green [3, 19]: 80
Foxtail, Green plant response rating [3, 20]: 100
Plant response rating, Johnsongrass [4, 13]: 80
Plant response rating, Johnsongrass [4, 14]: 85
Plant response rating, Johnsongrass [4, 15]: 90
Plant response rating, Johnsongrass [4, 16]: 95
Plant response rating, Johnsongrass [4, 17]: 0
Plant response rating, Johnsongrass [4, 18]: 60
Plant response rating, Johnsongrass [4, 19]: 75
Johnsongrass plant response rating [4, 20]: 98
Plant response rating, Lambsquarters [5, 13]: 90
Plant response rating, Lambsquarters [5, 14]: 95
Plant response rating, Lambsquarters [5, 15]: 98
Plant response rating, Lambsquarters [5, 16]: 100
Plant response rating, Lambsquarters [5, 17]: 98
Plant response rating, Lambsquarters [5, 18]: 100
Plant response rating, Lambsquarters [5, 19]: 100
Lambsquarters plant response rating [5, 20]: 100
Plant response rating, Pigweed [6, 13]: 80
Plant response rating, Pigweed [6, 14]: 98
Plant response rating, Pigweed [6, 15]: 98
Plant response rating, Pigweed [6, 16]: 100
Plant response rating, Pigweed [6, 17]: 100
Plant response rating, Pigweed [6, 18]: 100
Plant response rating, Pigweed [6, 19]: 100
Pigweed plant response rating [6, 20]: 100
Plant response rating, Soybean (soybean (Glycine max); [13]): 95
Plant response rating, Soybean (soybean (Glycine max); [14]): 95
Plant response rating, Soybean (soybean (Glycine max); [15]): 100
Plant response rating, Soybean (soybean (Glycine max); [16]): 100
Plant response rating, Soybean (soybean (Glycine max); [17]): 0
Plant response rating, Soybean (soybean (Glycine max); [18]): 0
Plant response rating, Soybean (soybean (Glycine max); [19]): 15
Soybean plant response rating (soybean (Glycine max); [20]): 80
Plant response rating, Velvetleaf [7, 13]: 95
Plant response rating, Velvetleaf [7, 14]: 98
Plant response rating, Velvetleaf [7, 15]: 98
Plant response rating, Velvetleaf [7, 16]: 100
Plant response rating, Velvetleaf [7, 17]: 80
Plant response rating, Velvetleaf [7, 18]: 95
Plant response rating, Velvetleaf [7, 19]: 98
Velvetleaf plant response rating [7, 20]: 100
Plant response rating, Nutsedge, Yellow [8, 13]: 10
Plant response rating, Nutsedge, Yellow [8, 14]: 15
Plant response rating, Nutsedge, Yellow [8, 15]: 15
Plant response rating, Nutsedge, Yellow [8, 16]: 60
Plant response rating, Nutsedge, Yellow [8, 17]: 10
Plant response rating, Nutsedge, Yellow [8, 18]: 25
Plant response rating, Nutsedge, Yellow [8, 19]: 40
Nutsedge, Yellow plant response rating [8, 20]: 90
Plant response rating, Canarygrass [9, 13]: 50
Plant response rating, Canarygrass [9, 14]: 50
Plant response rating, Canarygrass [9, 15]: 50
Plant response rating, Canarygrass [9, 16]: 60
Plant response rating, Chickweed [10, 13]: 95
Plant response rating, Chickweed [10, 14]: 98
Plant response rating, Chickweed [10, 15]: 100
Plant response rating, Chickweed [10, 16]: 100
Plant response rating, Windgrass [11, 13]: 50
Plant response rating, Windgrass [11, 14]: 80
Plant response rating, Windgrass [11, 15]: 80
Plant response rating, Windgrass [11, 16]: 95
Plant response rating, Barley [12, 13]: 30
Plant response rating, Barley [12, 14]: 35
Plant response rating, Barley [12, 15]: 35
Plant response rating, Barley [12, 16]: 50

CCCCCn1c(-c2ccccc2)ncc(C(=O)C2=C(O)CCCC2=O)c1=O [Compound 89]
Plant response rating, Corn (corn (Zea mays); [21]): 80
Corn plant response rating (0 to 100 scale) (corn (Zea mays); [22]): 95
Plant response rating, Corn (corn (Zea mays); [23]): 98
Plant response rating, Corn (corn (Zea mays); [24]): 98
Plant response rating, Foxtail, Giant [1, 21]: 70
Foxtail, Giant plant response rating (0 to 100 scale) [1, 22]: 85
Plant response rating, Foxtail, Giant [1, 24]: 98
Plant response rating, Goosegrass [2, 21]: 55
Goosegrass plant response rating (0 to 100 scale) [2, 22]: 65
Plant response rating, Goosegrass [2, 24]: 80
Plant response rating, Foxtail, Green [3, 21]: 60
Foxtail, Green plant response rating (0 to 100 scale) [3, 22]: 70
Plant response rating, Foxtail, Green [3, 24]: 80
Plant response rating, Johnsongrass [4, 21]: 25
Johnsongrass plant response rating (0 to 100 scale) [4, 22]: 90
Plant response rating, Johnsongrass [4, 24]: 100
Plant response rating, Lambsquarters [5, 21]: 95
Lambsquarters plant response rating (0 to 100 scale) [5, 22]: 98
Plant response rating, Lambsquarters [5, 24]: 100
Plant response rating, Pigweed [6, 21]: 80
Pigweed plant response rating (0 to 100 scale) [6, 22]: 98
Plant response rating, Pigweed [6, 24]: 100
Plant response rating, Soybean (soybean (Glycine max); [21]): 90
Soybean plant response rating (0 to 100 scale) (soybean (Glycine max); [22]): 90
Plant response rating, Soybean (soybean (Glycine max); [24]): 98
Plant response rating, Velvetleaf [7, 21]: 90
Velvetleaf plant response rating (0 to 100 scale) [7, 22]: 95
Plant response rating, Velvetleaf [7, 24]: 100
Plant response rating, Nutsedge, Yellow [8, 21]: 35
Nutsedge, Yellow plant response rating (0 to 100 scale) [8, 22]: 55
Plant response rating, Nutsedge, Yellow [8, 24]: 75
Plant response rating, Canarygrass [9, 21]: 10
Canarygrass plant response rating (0 to 100 scale) [9, 22]: 35
Plant response rating, Canarygrass [9, 23]: 50
Plant response rating, Canarygrass [9, 24]: 60
Plant response rating, Chickweed [10, 21]: 75
Chickweed plant response rating (0 to 100 scale) [10, 22]: 80
Plant response rating, Chickweed [10, 23]: 98
Plant response rating, Chickweed [10, 24]: 98
Plant response rating, Windgrass [11, 21]: 0
Windgrass plant response rating (0 to 100 scale) [11, 22]: 5
Plant response rating, Windgrass [11, 24]: 50
Plant response rating, Barley [12, 21]: 0
Barley plant response rating (0 to 100 scale) [12, 22]: 5
Plant response rating, Barley [12, 23]: 10
Plant response rating, Barley [12, 24]: 20
